Patent US7790761B2, “Blockade of voltage dependent sodium channels” (University College London, priority 2000, dated 2010)
Where two headings read alike, the source gives them in different places.

Experiments:
sodium channels = test: [14C]-labelled guanidine flux through sodium channels; format: biochemical, rat; settings: inhibition of flux of [14C]-labelled guanidine through sodium channels
optic nerve = test: tissue or blood; format: cell-based; settings: Rattus norvegicus; 30 μM of each drug; OGD 1 h; cGMP accumulation; compared with protection achieved by TTX; read-out: % protection accorded
optic nerve axons [1] = test: Optic nerve pathology: axonal damage caused by oxygen- and glucose-deprivation (OGD); format: cell-based, rat; settings: for Index of Axonopathy: mean ± S.E.M.; for Protection against axonal damage caused by OGD (in words): OGD-exposed rat optic nerve
Procedure: Optic nerves were excised from adult Wistar rats (weighing 240-280 g) after decapitation. They comprised lengths of nerve (each about 9 mm long) running from immediately behind the eyeball to just in front of the optic chiasm. The nerves were incubated in Erlenmeyer flasks (50 ml capacity) containing 20 ml of an artificial CSF (aCSF) solution composed of (mM): NaCl (120) KCl (2.0), CaCl2 (2.0), NaHCO3 (26), KH2PO4 (1.18), MgSO4 (1.19) and glucose (11), continuously gassed with 95% O2/5% CO2. The flasks were held in a shaking water bath at 37° C.
(§1) After 1-2 h preincubation in aCSF, test nerves received the NO donor, PAPA/NO (1 mM) for 2 h or OGD was imposed by transferring the nerves for 1 h into aCSF lacking glucose and gassed with 5% CO2 in N2. Afterwards, the nerves were allowed a 90 min recovery period in aCSF. Putative protectant drugs were present from 15 min before until 15 min after the NO exposure or OGD.
The nerves were then fixed for 2 h in a mixture of 4% paraformaldehyde and 2.5% glutaraldehyde in 0.1 M phosphate buffer (pH 7.4), and post-fixed with 1% osmium tetroxide for 1 h. After dehydration the tissues were embedded in Durcupan resin. Semithin (1 μm) sections were stained with either toluidine blue.
To quantify the extent of axonal pathology under the light microscope, the degree of distension of the axon profiles was measured using an image analysis system as described previously (Garthwaite et al., (1999), Neuroscience, 94, 1219-1230). The data are expressed as mean number of axons greater than 2.5 μm in diameter per […] (±S.E.M.) in fields from 5-39 nerves.

optic nerve axons [2] = test: Optic nerve pathology: axonal damage caused by the NO donor PAPA/NO; format: cell-based, rat
Procedure: Optic nerves were excised from adult Wistar rats (weighing 240-280 g) after decapitation. They comprised lengths of nerve (each about 9 mm long) running from immediately behind the eyeball to just in front of the optic chiasm. […] The flasks were held in a shaking water bath at 37° C.
as §1
After dehydration the tissues were embedded in Durcupan resin. Semithin (1 μm) sections were stained with either toluidine blue.
The data are expressed as mean number of axons greater than 2.5 μm in diameter per […] (±S.E.M.) in fields from 5-39 nerves.

[3] = PAPA/NO-exposed rat optic nerve

Work on `COC(=O)c1nn(Cc2ccccc2)c2ccccc12` yielded a melting point of 72 to 73 °C.

`Cn1nc(C(C)(C)C)cc1C(=O)Nc1ccc(Cl)cc1` [5-tert-Butyl-2-methyl-2H-pyrazole-3-carboxylic acid (4-chloro-phenyl)-amide] showed an IC50 (sodium channels) of 6 µM and an inhibition at 30 µM (optic nerve) of 62%.

For `CN1CCN(c2ncc(-c3cc(Cl)cc(Cl)c3Cl)c(N)n2)CC1` [BW619C89, reference compound], the “Index of Axonopathy” value (optic nerve axons [1]; OGD 1 h + drug at 100 μM) was 53 ± 5 axons greater than 2.5 μm in diameter per 10^4 m^2, the “Protection against axonal damage caused by OGD (in words)” value (optic nerve axons [1]) was “able to protect to an equivalent degree” and the “Index of Axonopathy” value (optic nerve axons [2]; PAPA/NO (1 mM) + drug at 100 μM, mean ± S.E.M.) was 26 ± 3 axons greater than 2.5 μm in diameter per 10^4 m^2. The “Effect on axonal pathology caused by NO (in words)” value (optic nerve axons [2]; [3]) was “eliminated”.

With `OCc1ccc(-c2nn(Cc3ccccc3)c3ccccc23)o1` [Example 4, 1-Benzyl-3-(5-hydroxymethyl-2-furyl)-1H-indazole] the “Index of Axonopathy” value (optic nerve axons [1]; OGD 1 h + drug, concentration not given) was 72 ± 15 axons greater than 2.5 μm in diameter per 10^4 m^2, the “Protection against axonal damage caused by OGD (in words)” value (optic nerve axons [1]) was “able to protect to an equivalent degree” and the IC50 (sodium channels) was 17 µM. The “Index of Axonopathy” value (optic nerve axons [2]; PAPA/NO (1 mM) + drug at 30 μM, mean ± S.E.M.) was 24 ± 4 axons greater than 2.5 μm in diameter per 10^4 m^2 and the “Effect on axonal pathology caused by NO (in words)” value (optic nerve axons [2]; [3]) was “as effective as both these other agents”.

`Cn1nc(C(C)(C)C)cc1C(=O)Nc1ccc(C(C)(C)C)cc1` [Example 26, 5-tert-Butyl-2-methyl-2H-pyrazole-3-carboxylic acid (4-tert-butyl-phenyl)-amide] gave an IC50 (sodium channels) of under 9 µM, an IC50 (sodium channels; listed as 5-tert-Butyl-2-methyl-2H-pyrazole-3-carboxylic acid (4-tert-butyl-phenyl)-amide) of 2 µM and an inhibition at 30 µM (optic nerve) of 18%.

In the case of `O=C(O)c1n[nH]c2ccccc12` [Example 48, Indazole-3-carboxylic acid], the melting point is reported as 261 to 263 °C (dec.).

Work on `CN(C)Cc1noc(-c2nn(Cc3ccccc3)c3ccccc23)n1` [Example 52, 1-Benzyl-3-[3-(N,N-dimethylaminomethyl)-1,2,4oxadiazol-5-yl]indazole] yielded an IC50 (sodium channels) of 33.9 µM and a melting point of 93 to 95 °C.

With `CCCN(CCCN)/[N+]([O-])=N/O` [PAPA/NO] the “Index of Axonopathy” value (optic nerve axons [2]; PAPA/NO (1 mM) for 2 h alone, no protectant, mean ± S.E.M.) was 226 ± 22 axons greater than 2.5 μm in diameter per 10^4 m^2.

In the case of `NC1=N[C@H](O)[C@H]2[C@H]3O[C@]4(O)O[C@@H]([C@@H](O)[C@@]2(N1)[C@@H]4O)[C@]3(O)CO` [Tetrodotoxin], the “Effect on axonal pathology caused by NO (in words)” value (optic nerve axons [2]) is reported as “eliminated” and the “Index of Axonopathy” value (optic nerve axons [2]) is reported as 17 ± 4 axons greater than 2.5 μm in diameter per 10^4 m^2.
